# Experimental data: paper PMC6332393, “A Fungal α-Galactosidase from Tricholoma matsutake with Broad Substrate Specificity and Good Hydrolytic Activity on Raffinose Family Oligosaccharides” (Molecules, 2015)
# Key:
# α-galactosidase TMG [1] = tested on: T1, α-galactosidase TMG; assay: p-nitrophenol release at […] nm; Grafit fit; format: biochemical, Tricholoma matsutake; conditions: pH 4.6, 50 °C (standard assay); 1-10 mM substrate; apparent Km; unit Mm [sic]
# T1 construct: native, purified from fruiting bodies (Yunnan, China); monomer, 47 kDa by SDS-PAGE and gel filtration; inner peptides by LC-MS/MS GNVMVSLG, LLNMND, INVNDS; not cloned
# α-galactosidase TMG [2] = tested on: T1, α-galactosidase TMG; assay: reducing sugar release ([…],5-dinitrosalicylic acid); Grafit fit; format: biochemical, Tricholoma matsutake; conditions: 100 mM NaAc-HAc pH 4.6, 40 °C; 1-10 mM substrate; apparent Km; unit Mm [sic]
Km (α-galactosidase TMG [1]) [mM],Km (α-galactosidase TMG [2]) [mM],SMILES
0.99,–,"O=[N+]([O-])c1ccc(O[C@H]2O[C@H](CO)[C@H](O)[C@H](O)[C@H]2O)cc1 [pNPGal, 4-Nitrophenyl α-D-galactopyranoside]"
–,3.7,OC[C@H]1O[C@H](OC[C@H]2O[C@H](O[C@]3(CO)O[C@H](CO)[C@@H](O)[C@@H]3O)[C@H](O)[C@@H](O)[C@@H]2O)[C@H](O)[C@@H](O)[C@H]1O [raffinose]
–,3.5,OC[C@H]1O[C@H](OC[C@H]2O[C@H](OC[C@H]3O[C@H](O[C@]4(CO)O[C@H](CO)[C@@H](O)[C@@H]4O)[C@H](O)[C@@H](O)[C@@H]3O)[C@H](O)[C@@H](O)[C@H]2O)[C@H](O)[C@@H](O)[C@H]1O [stachyose]
